Measured values as given in patent US20110217309A1, “BIOLOGICAL MARKERS PREDICTIVE OF ANTI-CANCER RESPONSE TO INSULIN-LIKE GROWTH FACTOR-1 RECEPTOR KINASE INHIBITORS” (priority 2010, published 2011).

Columns and labels:
MDAH-2774 cells = assay: Cell Titer Glo proliferation assay; format: cell-based, human; settings: MDAH-2774, 72 hours, KRAS mutant
Description: (§1) Cell Lines and Culture. Human cancer cell lines, were obtained from American Type Culture Collection (ATCC, Manassas, Va.), or the following additional indicated sources, and cultured in media as described. […] Cells were maintained at 37° C. in an incubator under an atmosphere containing 5% CO2. The cells were routinely screened for the presence of mycoplasma (MycoAlert, Cambrex Bio Science, Baltimore, Md.). For growth inhibition assays, cells were plated and allowed to proliferate for 24 hours. […] Cell viability was assayed using the Cell Titer-Glo reagent (Promega Corp., Madison, Wis.).
(§2) Proliferation Assay. […] The basis of the assay is a luminescent quantitation of ATP present in a cell culture plate well. In essence, the greater the number of viable cells in the well, the greater the level of ATP present. The assay utilizes a substrate that binds ATP to produce a luminescent signal, which can be read on a luminometer. Unless otherwise noted, the manufacturer's instructions were followed exactly. Briefly, on Day 1, cells were plated in 120 μl of 10% serum-containing growth media at a density of 4000 cells/well in a white polystyrene 96 well assay plate. […] After 72 h incubation with the inhibitor, the cells were assayed. Results were calculated as a fraction of the DMSO controlled cells.

OVCAR5 cells = assay: Cell Titer Glo proliferation assay; format: cell-based, human; settings: OVCAR5, 72 hours, KRAS mutant
Description: as §1, §2

[1] = system: broad panel (n=116) of additional RTKs and other protein kinases; settings: at 1 μM; cited from earlier work

EC50, proliferation (OVCAR5 cells): sub-micromolar
Compound: C[C@]1(O)C[C@@H](c2nc(-c3ccc4ccc(-c5ccccc5)nc4c3)c3c(N)nccn32)C1 [OSI-906, cis-3-[8-amino-1-(2-phenyl-quinolin-7-yl)-imidazo[1,5-a]pyrazin-3-yl]-1-methyl-cyclobutanol]
EC50, proliferation (MDAH-2774 cells): sub-micromolar | inhibition of additional kinases [1]: < 50%
